Entries after “also recorded” stand apart in the source; their conditions may differ.
Legend:
iNOS = iNOS (Homo sapiens, UniProt P35228); assay: eCMA-iNOS: iNOS-dependent ROS generation in capillary blood (ESR) after single oral dose; format: in vivo; conditions: over three hours after single oral dose (50 mg blend or 1,000 mg vitamin C); FIG. 2
NOX2 = molecular target: T1, NOX2 (Homo sapiens, UniProt P04839); assay: eCMA-PHAGO-NOX2: NOX2-dependent ROS generation in capillary blood (ESR) after single oral dose; format: in vivo; conditions: single oral dose (50 mg blend or 1,000 mg vitamin C); subjects 18-24 days after moderate COVID-19; 30-180 min after administration
T1 sequence (P04839 2-570 limits assumed): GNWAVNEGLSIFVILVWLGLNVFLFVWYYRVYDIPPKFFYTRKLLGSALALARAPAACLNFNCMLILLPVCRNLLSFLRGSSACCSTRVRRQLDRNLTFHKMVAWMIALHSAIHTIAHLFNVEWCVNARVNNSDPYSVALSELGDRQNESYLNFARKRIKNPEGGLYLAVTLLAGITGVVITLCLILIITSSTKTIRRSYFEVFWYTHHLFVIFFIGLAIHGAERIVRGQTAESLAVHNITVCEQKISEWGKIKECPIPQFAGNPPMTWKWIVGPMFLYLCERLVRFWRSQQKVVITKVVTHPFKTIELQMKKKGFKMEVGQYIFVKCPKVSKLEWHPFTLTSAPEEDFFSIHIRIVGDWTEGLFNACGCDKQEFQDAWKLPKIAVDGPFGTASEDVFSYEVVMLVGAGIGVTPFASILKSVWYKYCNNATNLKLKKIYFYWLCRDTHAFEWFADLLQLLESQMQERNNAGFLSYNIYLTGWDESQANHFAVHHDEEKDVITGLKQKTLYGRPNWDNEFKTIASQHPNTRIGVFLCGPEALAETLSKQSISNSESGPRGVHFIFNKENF
T1 sequence (P13498 2-195 partner limits assumed): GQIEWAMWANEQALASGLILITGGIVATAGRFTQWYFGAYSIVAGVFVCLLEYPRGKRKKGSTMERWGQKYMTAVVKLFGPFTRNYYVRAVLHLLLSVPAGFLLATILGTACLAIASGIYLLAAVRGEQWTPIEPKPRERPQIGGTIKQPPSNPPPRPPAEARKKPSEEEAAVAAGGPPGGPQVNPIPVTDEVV

[1] = system: TNF-α induced H2O2 formation; assay: inflammatory resistance assay: ex vivo TNF-α induced extracellular H2O2 generation by blood cells; format: in vivo, human; conditions: single oral dose 50 mg blend or 1,000 mg vitamin C

O=C1O[C@H]([C@@H](O)CO)C(O)=C1O [vitamin C]
change in iNOS dependent cellular metabolic activity, in words (iNOS): no notable effect | inhibition of NOX2-dependent ROS generation (NOX2): 45% | suppression of extracellular H2O2 induced by TNF-α, in words ([1]; TNF-α 40 ng/ml (comparable to acute viral infection), FIG. 5A): similarly suppress | reduction of high dose TNFα-induced H2O2 formation, in words ([1]; TNFα 200 ng/ml ("Cytokine Storm"), FIG. 5B): equal potential to reduce; also recorded: similar

Source: patent publication US20260232749A1, “Plant-Based Compositions And Methods For Modulation of Inflammatory Response Post Viral Infection” (VDF Futureceuticals, Inc., priority 2023, published 2026)
